System: 941728-121-R-J1-PDC complex spheroid viability
Assay: Anticancer human tumor 941728-121-R-J1-PDC patient-derived lung adenocarcinoma cell line growth inhibition [RAS]
Conditions: for IC50: curve of first compound; for viability, T/C: stronger effect = lower value; active = viability on the fitted dose curve at most 10% of control; inactive = the rest
Excerpt: RAS pathway inhibitors in Combinations in Complex Spheroids
A high-throughput screen of multi-cell type tumor spheroids was designed to identify active combinations of RAS pathway inhibitors and targeted small molecules. Complex spheroids include a stromal component modeled by human endothelial cells (HUVEC) and fibroblasts modeled by human mesenchymal stem cells (MSCs). The concentration ranges selected for each drug and investigational agent were based upon clinically achievable concentrations if the clinical Cmax of the agent was known.
Compounds. The drugs and investigational agents: abemaciclib (NSC768073), cobimetinib (NSC768068), divarasib (GDC6063, NSC841802), docetaxel (NSC628503), GDC-1971 (RLY-1971, NSC841576), gemcitabine (NSC613327), inavolisib (NSC800729), ipatasertib (NSC767898), KB-0742 (NSC834161), MRTX-1133 (NSC836407), osimertinib (NSC779217), RMC-4630 (NSC839698), RMC-6236 (NSC851965), RMC-6291 (NSC852671), Ro-3306 (NSC812927), sapanisertib (NSC764658), SN-38 (NSC673596), staurosporine (NSC755774), SY5609 (NSC837396), and tovorafenib (DAY101, NSC766906), were obtained from the National Cancer Institute (NCI) Developmental Therapeutics Program Chemical Repository. The FDA-approved anticancer drug set is available from the NCI Developmental Therapeutics Program. […] The stock solutions were prepared in dimethyl sulfoxide (DMSO, Sigma-Aldrich, St. Louis, MO, cat. D2650) at 800-fold the tested concentration and stored at -70 degrees C prior to their use. All drugs and investigational agents were tested over a range starting from a high concentration at or near the clinical Cmax and decreasing in half-log increments. If the clinical Cmax for an agent had not been determined, the highest concentration tested was 10 microM.
Cell Culture. All cells were maintained in an incubator at 37 degrees C and 5% CO2 with 95% humidity. The PDC lines were cultured according to standard operating procedures established by the NCI PDMR. All PDCs were thawed and cultured in Matrigel-coated flasks prepared with a working solution of 1X Ham's F-12 nutrient mix, without supplementation (Invitrogen, Waltham, MA, cat. 11765054), 100 U/mL penicillin-streptomycin (Invitrogen, cat. 15140122), and 2.5% Matrigel (Corning Inc., Corning, NY, cat. 354248) for the first three passages. The 362531-283-R-J2-PDC and 782815-120-R-J1-PDC lines were cultured in 6C/Colon 1B media, which includes advanced DMEM/F-12 (Thermo Fisher Scientific, cat. 12634028), 10 mM HEPES (Thermo Fisher Scientific, cat. 15630080), 1X GlutaMAX supplement (Thermo Fisher Scientific, cat. 35050061), 0.1 mg/mL primocin (InvivoGen, San Diego, CA, cat. ant-pm-2), 10% defined fetal bovine serum, heat inactivated (HyClone Laboratories Inc., Logan, UT, cat. SH30070.03HI), 50% L-WRN conditioned media (ATCC, cat. CRL-3276), 1.25 mM N-Acetyl-L-cysteine (Sigma-Aldrich, cat. A9165), 10 mM nicotinamide (Sigma-Aldrich, cat. N0636), 1X B-27 supplement (Thermo Fisher Scientific, cat. 17504044), 1X N-2 supplement (Thermo Fisher Scientific, cat. 17502048), 50 ng/mL human EGF (Thermo Fisher Scientific, cat. PHG0311), and 10 microM Y-27632 dihydrochloride (Tocris Bioscience, cat. 1254). The K12877-001-R-J1-PDC line was cultured in 6I media, which includes all 6C/Colon 1B media plus 10 ng/mL human FGF-10 (PeproTech, cat. 100-26), 1 ng/mL human FGF-2 (PeproTech, cat. 100-18B), 1 µM prostaglandin E2 (Tocris Bioscience, cat. 2296), […] hydrocortisone (Sigma-Aldrich, cat. H4001), and […] bovine insulin (Sigma-Aldrich, cat. I6634). The K86415-001-R-J1-PDC line was cultured in 6D media, which includes all 6C/Colon 1B media components minus the L-WRN conditioned media. The 485176-168-R4-J1-PDC was cultured in PANC media, which includes all 6C/Colon 1B media plus 100 ng/mL human FGF-10 (PeproTech, cat. 100-26), 500 nM SB-431542 (Selleckchem, cat. S1067), and 10 nM gastrin (Tocris Bioscience, cat. 3006). […]
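Note: spheroids exposed to compounds for 7 days before readout.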

C=CC(=O)N1CCN(c2nc(OCC3CCCN3C)nc3c(F)c(-c4nc(N)cc(C)c4C(F)(F)F)c(Cl)cc23)C(C)C1 (centres undefined) + C#Cc1c(F)ccc2cc(O)cc(-c3ncc4c(N5CC6CCC(C5)N6)nc(OCC56CCCN5CC(F)C6)nc4c3F)c12
< 3.16 nM: IC50 (second compound 0.0316 µM) | IC50 (second compound 0.1 µM) | IC50 (second compound 0.316 µM) | IC50 (second compound 1 µM) | IC50 (second compound 3.16 µM) | IC50 (second compound 10 µM)
inactive: viability, T/C (second compound 0.0316 µM, first compound 0.00316 µM) 22.3% | viability, T/C (second compound 0.0316 µM, first compound 0.01 µM) 20.1% | viability, T/C (second compound 0.0316 µM, first compound 0.0316 µM) 18.7% | viability, T/C (second compound 0.0316 µM, first compound 0.1 µM) 21% | viability, T/C (second compound 0.0316 µM, first compound 0.316 µM) 22.6% | viability, T/C (second compound 0.0316 µM, first compound 1 µM) 21.2% | viability, T/C (second compound 0.1 µM, first compound 0.00316 µM) 22.9% | viability, T/C (second compound 0.1 µM, first compound 0.01 µM) 19.5% | viability, T/C (second compound 0.1 µM, first compound 0.0316 µM) 21.8% | viability, T/C (second compound 0.1 µM, first compound 0.1 µM) 20.7% | viability, T/C (second compound 0.1 µM, first compound 0.316 µM) 19.8% | viability, T/C (second compound 0.1 µM, first compound 1 µM) 23.9% | viability, T/C (second compound 0.316 µM, first compound 0.00316 µM) 22.1% | viability, T/C (second compound 0.316 µM, first compound 0.01 µM) 22.2% | viability, T/C (second compound 0.316 µM, first compound 0.0316 µM) 21% | viability, T/C (second compound 0.316 µM, first compound 0.1 µM) 23.4% | viability, T/C (second compound 0.316 µM, first compound 0.316 µM) 20.7% | viability, T/C (second compound 0.316 µM, first compound 1 µM) 21.4% | viability, T/C (second compound 1 µM, first compound 0.00316 µM) 21.3% | viability, T/C (second compound 1 µM, first compound 0.01 µM) 19.5% | viability, T/C (second compound 1 µM, first compound 0.0316 µM) 22% | viability, T/C (second compound 1 µM, first compound 0.1 µM) 21.5% | viability, T/C (second compound 1 µM, first compound 0.316 µM) 22.2% | viability, T/C (second compound 1 µM, first compound 1 µM) 22.5% | viability, T/C (second compound 3.16 µM, first compound 0.00316 µM) 22.8% | viability, T/C (second compound 3.16 µM, first compound 0.01 µM) 20.1% | viability, T/C (second compound 3.16 µM, first compound 0.0316 µM) 22% | viability, T/C (second compound 3.16 µM, first compound 0.1 µM) 20.3% | viability, T/C (second compound 3.16 µM, first compound 0.316 µM) 22% | viability, T/C (second compound 3.16 µM, first compound 1 µM) 22.3% | viability, T/C (second compound 10 µM, first compound 0.00316 µM) 21.9% | viability, T/C (second compound 10 µM, first compound 0.01 µM) 21.1% | viability, T/C (second compound 10 µM, first compound 0.0316 µM) 17.5% | viability, T/C (second compound 10 µM, first compound 0.1 µM) 17.8% | viability, T/C (second compound 10 µM, first compound 0.316 µM) 18.2% | viability, T/C (second compound 10 µM, first compound 1 µM) 14.7%

O=C(c1ccc(F)c(F)c1Nc1ccc(I)cc1F)N1CC(O)([C@@H]2CCCCN2)C1 + CCn1c(-c2cccnc2C(C)OC)c2c3cc(ccc31)N1CCOC(CC(NC(=O)C(C(C)C)N(C)C(=O)C3(F)CCN(C(=O)C#CC(C)(C)N(C)C)CC3)C(=O)N3CCCC(N3)C(=O)OCC(C)(C)C2)C1
21.9 nM: IC50 (second compound 0.003 µM)
active: viability, T/C (second compound 0.000949 µM, first compound 1 µM) 7.9%
inactive: viability, T/C (second compound 0.000949 µM, first compound 0.00316 µM) 20.5% | viability, T/C (second compound 0.000949 µM, first compound 0.01 µM) 18.8% | viability, T/C (second compound 0.000949 µM, first compound 0.0316 µM) 13.7% | viability, T/C (second compound 0.000949 µM, first compound 0.1 µM) 17.1% | viability, T/C (second compound 0.000949 µM, first compound 0.316 µM) 12.5% | viability, T/C (second compound 0.003 µM, first compound 0.00316 µM) 94.2% | viability, T/C (second compound 0.003 µM, first compound 0.01 µM) 64.1% | viability, T/C (second compound 0.003 µM, first compound 0.0316 µM) 37.4% | viability, T/C (second compound 0.003 µM, first compound 0.1 µM) 38% | viability, T/C (second compound 0.003 µM, first compound 0.316 µM) 35.4% | viability, T/C (second compound 0.003 µM, first compound 1 µM) 18.4% | viability, T/C (second compound 0.00949 µM, first compound 0.00316 µM) 18.6% | viability, T/C (second compound 0.00949 µM, first compound 0.01 µM) 15.4% | viability, T/C (second compound 0.00949 µM, first compound 0.0316 µM) 17% | viability, T/C (second compound 0.00949 µM, first compound 0.1 µM) 14.6% | viability, T/C (second compound 0.00949 µM, first compound 0.316 µM) 11.6% | viability, T/C (second compound 0.00949 µM, first compound 1 µM) 9.5% | viability, T/C (second compound 0.03 µM, first compound 0.00316 µM) 18.3% | viability, T/C (second compound 0.03 µM, first compound 0.01 µM) 17.9% | viability, T/C (second compound 0.03 µM, first compound 0.0316 µM) 18.8% | viability, T/C (second compound 0.03 µM, first compound 0.1 µM) 12.8% | viability, T/C (second compound 0.03 µM, first compound 0.316 µM) 12.4% | viability, T/C (second compound 0.03 µM, first compound 1 µM) 12.2% | viability, T/C (second compound 0.0949 µM, first compound 0.00316 µM) 19.4% | viability, T/C (second compound 0.0949 µM, first compound 0.01 µM) 17.1% | viability, T/C (second compound 0.0949 µM, first compound 0.0316 µM) 15.8% | viability, T/C (second compound 0.0949 µM, first compound 0.1 µM) 13.6% | viability, T/C (second compound 0.0949 µM, first compound 0.316 µM) 12.9% | viability, T/C (second compound 0.0949 µM, first compound 1 µM) 15.1% | viability, T/C (second compound 0.3 µM, first compound 0.00316 µM) 17.9% | viability, T/C (second compound 0.3 µM, first compound 0.01 µM) 20% | viability, T/C (second compound 0.3 µM, first compound 0.0316 µM) 15.8% | viability, T/C (second compound 0.3 µM, first compound 0.1 µM) 15.7% | viability, T/C (second compound 0.3 µM, first compound 0.316 µM) 13.7% | viability, T/C (second compound 0.3 µM, first compound 1 µM) 14%
< 3.16 nM: IC50 (second compound 0.000949 µM) | IC50 (second compound 0.00949 µM) | IC50 (second compound 0.03 µM) | IC50 (second compound 0.0949 µM) | IC50 (second compound 0.3 µM)
